Assay results taken from patent US11072598B2, “Somatostatin modulators and uses thereof” (CRINETICS PHARMACEUTICALS, INC., priority 2017, dated 2021).

Target: T1, human somatostatin receptor subtype 2 (Homo sapiens, UniProt P30874)
T1 construct: expressed in transfected cells
Assay: cAMP functional assay for SSTR2 agonists
Format: cell-based
Settings: inhibition of cAMP activities via human SST2 receptor (SSTR2), CHO-K1 cells; read-out: EC50
Excerpt: General overview: All five SSTR subtypes are Gi coupled G-protein coupled receptors (GPCRs) that lead to decreases in intracellular cyclic AMP (cAMP) when activated by an agonist. Therefore, measurement of intracellular cAMP levels can be used to assess whether compounds of the invention are agonists of SSTR subtypes (John Kelly, Troy Stevens, W. Joseph Thompson, and Roland Seifert, Current Protocols in Pharmacology, 2005, 2.2.1-2.2). One example of an intracellular cAMP assay is described below. cAMP assay protocol:
Four days prior to the assay, 5,000 Chinese hamster ovary cells (CHO-K1, ATCC #CCL-61) stably expressing the human somatostatin receptor subtype 2 are plated in each well of a 96-well tissue culture-treated plate in Ham's F12 growth media (ThermoFisher #10-080-CM) supplemented with 10% donor bovine serum (Gemini Bio-Products #100-506), 100 U/mL penicillin; 100 ug/mL streptomycin; 2 mM L-glutamine (Gemini Bio-Products #400-110) and 0.2 mg/mL hygromycin B (GoldBio #31282-04-9). The cells are cultured at 37° C., 5% CO2 and 95% humidity. On the day of the assay, the media is aspirated and the cells are treated with 50 μL of 1.6 μM NKH477 (Sigma #N3290) plus various dilutions of compounds of the invention in assay buffer [1× Hank's Balanced Salt Solution (ThermoFisher #SH3058802), 0.5 mM HEPES pH 7.4, 0.1% bovine serum albumin, 0.2 mM 3-Isobutyl-1-methylxanthine (IBMX, VWR #200002-790)]. The cells are incubated for 20 minutes at 37° C. […] The cells are treated with 50 μL of lysis buffer (HRTF cAMP kit, Cisbio). The lysate is transferred to 384-well plates and cAMP detection and visualization antibodies are added and incubated for 1-24 hours at room temperature. The time-resolved fluorescent signal is read with a Tecan M1000Pro multiplate reader. The intracellular cAMP concentrations are calculated by regression to a standard curve and are plotted vs. the concentration of the compounds of the invention and the EC50 of the compounds are calculated using standard methods. All data manipluations are in GraphPad Prism v6.

T1 sequence (P30874 whole entry): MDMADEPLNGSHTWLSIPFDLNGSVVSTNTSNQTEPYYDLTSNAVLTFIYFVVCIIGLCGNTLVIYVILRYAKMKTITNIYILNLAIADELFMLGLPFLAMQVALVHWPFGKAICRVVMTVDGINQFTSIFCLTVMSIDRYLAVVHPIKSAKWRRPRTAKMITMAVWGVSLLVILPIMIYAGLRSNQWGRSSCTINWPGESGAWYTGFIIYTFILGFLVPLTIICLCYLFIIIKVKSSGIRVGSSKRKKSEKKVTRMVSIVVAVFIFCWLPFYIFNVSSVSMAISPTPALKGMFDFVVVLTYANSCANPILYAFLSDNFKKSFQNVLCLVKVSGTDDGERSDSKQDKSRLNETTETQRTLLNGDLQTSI

EC50, < 10 nM:
Cc1cc(F)cc(-c2cnnc(-c3cc4cc(F)ccc4[nH]3)c2N2CCC(N)CC2)c1 [Compound 3-8, 1-[3-(5-fluoro-1H-indol-2-yl)-5-(3-fluoro-5-methylphenyl)pyridazin-4-yl]piperidin-4-amine]
Cc1cc(F)cc(-c2cnnc(-c3cc4cccc(Cl)c4[nH]3)c2N2CCC(N)CC2)c1 [Compound 3-7, 1-[3-(7-chloro-1H-indol-2-yl)-5-(3-fluoro-5-methylphenyl)pyridazin-4-yl]piperidin-4-amine]
CNC1CCN(c2c(-c3cc(C)cc(F)c3)cnc(N)c2-c2nc3ccc(C#N)cc3[nH]2)CC1 [Compound 4-2, 2-[2-amino-5-(3-fluoro-5-methylphenyl)-4-[4-(methylamino)piperidin-1-yl]pyridin-3-yl]-1H-1,3-benzodiazole-6-carbonitrile]
COc1cc(F)cc2[nH]c(-c3c(N)ncc(-c4cc(C)cc(C)c4)c3N3CCC(N)CC3)nc12 [Compound 1-83, 4-(4-aminopiperidin-1-yl)-5-(3,5-dimethylphenyl)-3-(6-fluoro-4-methoxy-1H-1,3-benzodiazol-2-yl)pyridin-2-amine]
CNc1ncc(-c2cc(C)cc(F)c2)c(N2CCC(NC)CC2)c1-c1nc2cc(Cl)ccc2[nH]1 [Compound 4-1, 3-(5-chloro-1H-1,3-benzodiazol-2-yl)-5-(3-fluoro-5-methylphenyl)-N-methyl-4-[4-(methylamino)piperidin-1-yl]pyridin-2-amine]
Cc1cc(F)cc(-c2cnnc(-c3nc4cc(C#N)ccc4[nH]3)c2N2CCC(N)CC2)c1 [Compound 3-22, 2-[4-(4-aminopiperidin-1-yl)-5-(3-fluoro-5-methylphenyl)pyridazin-3-yl]-1H-1,3-benzodiazole-5-carbonitrile]
Cc1cc(F)cc(-c2cnc(O)c(-c3nc4cc(Cl)ccc4[nH]3)c2N2CCC(N)CC2)c1 [Compound 2-4, 4-(4-aminopiperidin-1-yl)-3-(5-chloro-1H-1,3-benzodiazol-2-yl)-5-(3-fluoro-5-methylphenyl)pyridin-2-ol]
Cc1cc(C#N)cc(-c2cnc(N)c(-c3nc4cc(Cl)ccc4[nH]3)c2N2CCC(N)CC2)c1 [Compound 1-25, 3-[6-amino-4-(4-aminopiperidin-1-yl)-5-(5-chloro-1H-1,3-benzodiazol-2-yl)pyridin-3-yl]-5-methylbenzonitrile]
CONC(=O)Nc1ccc2[nH]c(-c3c(N)ncc(-c4cc(C)cc(F)c4)c3N3CCC(N)CC3)nc2c1 [Compound 1-46, 1-{2-[2-amino-4-(4-aminopiperidin-1-yl)-5-(3-fluoro-5-methylphenyl)pyridin-3-yl]-1H-1,3-benzodiazol-5-yl}-3-methoxyurea]
COc1ncc(-c2cc(C)cc(F)c2)c(N2CCC(N)CC2)c1-c1nc2nc(Cl)ccc2[nH]1 [Compound 2-13, 1-(3-{5-chloro-1H-imidazo[4,5-b]pyridin-2-yl}-5-(3-fluoro-5-methylphenyl)-2-methoxypyridin-4-yl)piperidin-4-amine]
Nc1ncc(-c2cc(F)cc(Cl)c2)c(N2CCC(N)CC2)c1-c1nc2cc(F)cc(F)c2[nH]1 [Compound 1-77, 4-(4-aminopiperidin-1-yl)-5-(3-chloro-5-fluorophenyl)-3-(5,7-difluoro-1H-1,3-benzodiazol-2-yl)pyridin-2-amine]
COc1ncc(-c2cc(C)cc(F)c2)c(N2CCC(N)CC2)c1-c1nc2cc(C#N)ccc2[nH]1 [Compound 2-8, 2-[4-(4-aminopiperidin-1-yl)-5-(3-fluoro-5-methylphenyl)-2-methoxypyridin-3-yl]-1H-1,3-benzodiazole-5-carbonitrile]
Cc1cc(F)cc(-c2cnnc(-c3[nH]c4cc(C#N)ccc4c3Cl)c2N2CCC(N)CC2)c1 [Compound 3-24, 2-[4-(4-aminopiperidin-1-yl)-5-(3-fluoro-5-methylphenyl)pyridazin-3-yl]-3-chloro-1H-indole-6-carbonitrile]
COc1ccc2[nH]c(-c3nncc(-c4cc(C)cc(F)c4)c3N3CCC(N)CC3)nc2c1 [Compound 3-10, 1-[5-(3-fluoro-5-methylphenyl)-3-(5-methoxy-1H-1,3-benzodiazol-2-yl)pyridazin-4-yl]piperidin-4-amine]
COc1cc(F)cc2nc(-c3c(N)ncc(-c4cccc(Cl)c4)c3N3CCC(N)CC3)[nH]c12 [Compound 1-92, 4-(4-aminopiperidin-1-yl)-5-(3-chlorophenyl)-3-(5-fluoro-7-methoxy-1H-1,3-benzodiazol-2-yl)pyridin-2-amine]
COC(=O)Nc1cccc2nc(-c3c(N)ncc(-c4cc(C)cc(F)c4)c3N3CCC(N)CC3)[nH]c12 [Compound 1-27, methyl N-{2-[2-amino-4-(4-aminopiperidin-1-yl)-5-(3-fluoro-5-methylphenyl)pyridin-3-yl]-1H-1,3-benzodiazol-7-yl}carbamate]
COc1cc(F)cc2nc(-c3c(N)ncc(-c4ccc(F)c(C)c4)c3N3CCC(N)CC3)[nH]c12 [Compound 1-91, 4-(4-aminopiperidin-1-yl)-5-(4-fluoro-3-methylphenyl)-3-(5-fluoro-7-methoxy-1H-1,3-benzodiazol-2-yl)pyridin-2-amine]
Cc1cc(F)cc(-c2cnnc(-c3cc4ccc(C)cc4[nH]3)c2N2CCC(N)CC2)c1 [Compound 3-16, 1-[5-(3-fluoro-5-methylphenyl)-3-(6-methyl-1H-indol-2-yl)pyridazin-4-yl]piperidin-4-amine]
COc1ccc2c(Cl)c(-c3nncc(-c4cc(C)cc(F)c4)c3N3CCC(N)CC3)[nH]c2c1 [Compound 3-21, 1-[3-(3-chloro-6-methoxy-1H-indol-2-yl)-5-(3-fluoro-5-methylphenyl)pyridazin-4-yl]piperidin-4-amine]
Nc1ncc(-c2cc(F)cc(F)c2)c(N2CCC(N)CC2)c1-c1nc2cc(Cl)ccc2[nH]1 [Compound 1-81, 4-(4-aminopiperidin-1-yl)-3-(5-chloro-1H-1,3-benzodiazol-2-yl)-5-(3,5-difluorophenyl)pyridin-2-amine]
CNC1CCN(c2c(-c3cc(C)cc(F)c3)cnc(N)c2-c2nc3cc(F)cc(OC)c3[nH]2)CC1 [Compound 4-10, 3-(5-fluoro-7-methoxy-1H-1,3-benzodiazol-2-yl)-5-(3-fluoro-5-methylphenyl)-4-[4-(methylamino)piperidin-1-yl]pyridin-2-amine]
CON=Cc1cccc2[nH]c(-c3c(N)ncc(-c4cc(C)cc(F)c4)c3N3CCC(N)CC3)nc12 [Compound 1-44, 4-(4-aminopiperidin-1-yl)-5-(3-fluoro-5-methylphenyl)-3-{4-[(methoxyimino)methyl]-1H-1,3-benzodiazol-2-yl}pyridin-2-amine]
Cc1cc(F)cc(-c2cnnc(-c3cc4ccc(F)cc4[nH]3)c2N2CCC(N)CC2)c1 [Compound 3-4, 1-[3-(6-fluoro-1H-indol-2-yl)-5-(3-fluoro-5-methylphenyl)pyridazin-4-yl]piperidin-4-amine]
CON=Cc1ccc2[nH]c(-c3c(N)ncc(-c4cc(C)cc(F)c4)c3N3CCC(N)CC3)nc2c1 [Compound 1-40, 4-(4-aminopiperidin-1-yl)-5-(3-fluoro-5-methylphenyl)-3-{5-[(methoxyimino)methyl]-1H-1,3-benzodiazol-2-yl}pyridin-2-amine]
Cc1cc(F)cc(-c2cnc(N)c(-c3nc4cc(S(C)(=O)=O)ccc4[nH]3)c2N2CCC(N)CC2)c1 [Compound 1-53, 4-(4-aminopiperidin-1-yl)-5-(3-fluoro-5-methylphenyl)-3-(5-methanesulfonyl-1H-1,3-benzodiazol-2-yl)pyridin-2-amine]
CNc1ncc(-c2cc(C)cc(F)c2)c(N2CCC(N)CC2)c1-c1nc2ccc(C#N)cc2[nH]1 [Compound 1-70, 2-[4-(4-aminopiperidin-1-yl)-5-(3-fluoro-5-methylphenyl)-2-(methylamino)pyridin-3-yl]-1H-1,3-benzodiazole-6-carbonitrile]

EC50, > 100 nM:
COc1ncc(-c2cc(C)cc(Cl)c2)c(N2CCC(N)CC2)c1/C=N/OC(C)(C)C [Compound 2-12, 1-{3-[(1E)-[(tert-butoxy)imino]methyl]-5-(3-chloro-5-methylphenyl)-2-methoxypyridin-4-yl}piperidin-4-amine]

EC50, 10 to 100 nM:
Cc1cc(C)cc(-c2cnc(N)c(C=NOC(C)(C)C)c2N2CCC(N)CC2)c1 [Compound 1-36]
Cc1cc(F)cc(-c2cnc(O)c(-c3nc4cc(F)ccc4[nH]3)c2N2CCC(N)CC2)c1 [Compound 2-10, 4-(4-aminopiperidin-1-yl)-3-(5-fluoro-1H-1,3-benzodiazol-2-yl)-5-(3-fluoro-5-methylphenyl)pyridin-2-ol]
